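Where inhibition never reached the appropriate level, the endpoint shown equals the highest concentration tested. Otherwise, values were interpolated linearly from a five-concentration, 48-hour dose response in 96-well plates. TGI denotes the concentration required for complete inhibition of growth.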
How the values were obtained:
Assay in all cases: DTP human tumour cell line panel, 48 h
DLD-1 colon = system: DLD-1 colon
DMS 114 small cell lung = system: DMS 114 small cell lung
DMS 273 small cell lung = system: DMS 273 small cell lung
EKVX NSCLC = system: EKVX NSCLC
HOP-18 NSCLC = system: HOP-18 NSCLC
KM20L2 colon = system: KM20L2 colon
LXFL 529 NSCLC = system: LXFL 529 NSCLC
M19-MEL melanoma = system: M19-MEL melanoma
SF-295 CNS = system: SF-295 CNS
SK-MEL-28 melanoma = system: SK-MEL-28 melanoma
SNB-78 CNS = system: SNB-78 CNS
XF 498 CNS = system: XF 498 CNS
NCI-H460 lung = system: NCI-H460 lung
SK-MEL-2 melanoma = system: SK-MEL-2 melanoma
RXF-631 renal = system: RXF-631 renal
PC-3 prostate = system: PC-3 prostate

SMILES | TGI (DLD-1 colon) [µM] | TGI (DMS 114 small cell lung) [µM] | TGI (DMS 273 small cell lung) [µM] | TGI (EKVX NSCLC) [µM] | TGI (HOP-18 NSCLC) [µM] | TGI (KM20L2 colon) [µM] | TGI (LXFL 529 NSCLC) [µM] | TGI (M19-MEL melanoma) [µM] | TGI (SF-295 CNS) [µM] | TGI (SK-MEL-28 melanoma) [µM] | TGI (SNB-78 CNS) [µM] | TGI (XF 498 CNS) [µM] | TGI (NCI-H460 lung) [µM] | TGI (SK-MEL-2 melanoma) [µM] | TGI (RXF-631 renal) [µM] | TGI (PC-3 prostate) [µM]
O=C1c2ccccc2N2OC3(N4CCOCC4)CCCC3C12c1ccccc1 (configuration not stated) | > 100 | > 100 | > 100 | > 100 | > 100 | > 100 | > 100 | > 100 | > 100 | > 100 | > 100 | > 100 | – | – | – | –
CC(=O)OC1COC(N2CCc3cc([N+](=O)[O-])ccc32)C(OC(C)=O)C1OC(C)=O (configuration not stated) | > 100 | > 100 | > 100 | > 100 | – | > 100 | > 100 | > 100 | > 100 | > 100 | > 100 | > 100 | > 100 | > 100 | – | –
C1CCC(N=C2N(C3CCCCC3)C(=NC3CCCCC3)N2C2CCCCC2)CC1 | > 100 | > 100 | > 100 | > 100 | > 100 | > 100 | > 100 | > 100 | > 100 | > 100 | – | > 100 | > 100 | > 100 | – | –
CN1CCOC(C(NC(=O)c2ccccc2)c2ccccc2)C1=O (configuration not stated) | > 100 | – | > 100 | > 100 | > 100 | > 100 | – | > 100 | > 100 | > 100 | > 100 | – | > 100 | > 100 | – | –
COc1ccc(/C=C2\C(=O)N(NC(C)=O)c3ccccc32)cc1 | > 100 | > 100 | > 100 | > 100 | > 100 | > 100 | – | > 100 | > 100 | > 100 | > 100 | > 100 | > 100 | > 100 | > 100 | –
NNC(=O)C(=O)NN=C(C(Cl)(Cl)CO)C(Cl)(Cl)CO | 57.4 | – | > 100 | > 100 | > 100 | > 100 | > 100 | 46.8 | > 100 | 97.9 | > 100 | > 100 | > 100 | > 100 | 55.7 | –
C1CSCCSCCCS[C@@H]2CCCCC2SC1 (some centres not stated) | > 100 | 65.4 | > 100 | > 100 | > 100 | > 100 | > 100 | > 100 | > 100 | > 100 | > 100 | – | > 100 | > 100 | – | –
O=C(c1ccccc1)C1(Br)S(=O)(=O)OCCOS1(=O)=O | > 100 | > 100 | > 100 | > 100 | – | > 100 | > 100 | > 100 | > 100 | > 100 | > 100 | > 100 | > 100 | > 100 | – | –
CCOC(=O)C1S(=O)(=O)OCCOS1(=O)=O | > 100 | – | > 100 | > 100 | – | – | > 100 | > 100 | > 100 | > 100 | > 100 | > 100 | – | > 100 | > 100 | –
COc1ccc(-c2c(C3=NCCCN3)nnn2-c2ccccc2)cc1 | > 100 | > 100 | > 100 | > 100 | > 100 | > 100 | > 100 | > 100 | > 100 | > 100 | > 100 | > 100 | > 100 | > 100 | – | –
[B]C(=O)NC(CC(C)C)C(=O)NCC(=O)NC1c2ccsc2C(=O)C1O (configuration not stated) (tested in a mixture with another compound) | – | – | – | > 100 | – | – | – | – | > 100 | > 100 | – | – | > 31.6 | > 100 | – | > 100
Cc1[nH]n(-c2nc3c(c(=O)[nH]2)CCCC3)c(=O)c1CCO | – | – | – | > 100 | – | – | – | – | > 100 | > 100 | – | – | > 100 | > 100 | – | > 100
Cn1c(CNc2ccc(-c3n[nH]c(=S)n3C)cc2)n[nH]c1=S | – | – | – | > 100 | – | – | – | – | > 100 | > 100 | – | – | > 100 | > 100 | – | > 100
CCCCCCCCOCC(COC(=O)CCCCCCC)OC(=O)CCCCCCC (configuration not stated) | > 100 | > 100 | > 100 | – | > 100 | > 100 | > 100 | > 100 | > 100 | > 100 | – | – | > 100 | – | > 100 | –

Reference: PubChem BioAssay (NCI)
